PubChem BioAssay AID1259407 (Chemical Carcinogenesis Research Information System (CCRIS), 2018)
Calls of active or inactive are those of the source. The rule behind the calls is not given here.

Tested on: CCRIS mutagenicity, Ames/micronucleus/aberration tests
Assay: CCRIS mutagenicity studies
[1] = Test System: AMES SALMONELLA TYPHIMURIUM, Strain/Indicator: TA100, Metabolic Activation: RAT, LIVER, S-9, AROCLOR 1254, Method: STANDARD PLATE
[2] = Test System: AMES SALMONELLA TYPHIMURIUM, Strain/Indicator: TA98, Metabolic Activation: NONE, Method: STANDARD PLATE
[3] = Test System: AMES SALMONELLA TYPHIMURIUM, Strain/Indicator: TA98, Metabolic Activation: RAT, LIVER, S-9, AROCLOR 1254, Method: STANDARD PLATE

## [O-][Br+2]([O-])O
End Point: IN VITRO CHROMOSOMAL ABERRATIONS, Test System: CHL/IU CELLS, Metabolic Activation: NONE
  mutagenic call: active; positive (structural changes)
End Point: IN VITRO MICRONUCLEUS, Test System: CHL/IU CELLS, Metabolic Activation: NONE
  mutagenic call: active; positive
End Point: IN VIVO MICRONUCLEUS, Test System: BONE MARROW POLYCHROMATIC ERYTHROCYTES, Species: MOUSE, Strain/Sex: DDY/MALE, Route: ORAL
  mutagenic call: active; positive
End Point: In vitro chromosomal aberrations, Test System: Chinese hamster lung (CHL) cells, Metabolic Activation: None
  mutagenic call: active; positive (structural changes)
End Point: In vitro micronucleus, Test System: Human TK6 lymphoblastoid cells, Metabolic Activation: None
  mutagenic call: active; positive
End Point: In vivo micronucleus, Test System: Peripheral blood normochromatic erythrocytes, Species: Mouse, Strain/Sex: Tg.AC hemizygous/Female, Route: Dermal
  mutagenic call: active; positive
End Point: In vivo micronucleus, Test System: Peripheral blood normochromatic erythrocytes, Species: Mouse, Strain/Sex: Tg.AC hemizygous/Female, Route: Oral
  mutagenic call: active; positive
End Point: In vivo micronucleus, Test System: Peripheral blood normochromatic erythrocytes, Species: Mouse, Strain/Sex: Tg.AC hemizygous/Male, Route: Dermal
  mutagenic call: active; positive
End Point: In vivo micronucleus, Test System: Peripheral blood normochromatic erythrocytes, Species: Mouse, Strain/Sex: Tg.AC hemizygous/Male, Route: Oral
  mutagenic call: active; positive
End Point: In vivo micronucleus, Test System: Peripheral blood normochromatic erythrocytes, Species: Mouse, Strain/Sex: p53 Haploinsufficient/Female, Route: Oral
  mutagenic call: active; positive
End Point: In vivo micronucleus, Test System: Peripheral blood normochromatic erythrocytes, Species: Mouse, Strain/Sex: p53 Haploinsufficient/Male, Route: Oral
  mutagenic call: active; positive
End Point: In vivo mutagenicity, Test System: Kidney, Species: Rat, Strain/Sex: Big Blue/male, Route: Oral
  mutagenic call: active; positive for mutants and total mutation frequencies and frequency of gc to ta tr
Test System: AMES SALMONELLA TYPHIMURIUM, Strain/Indicator: TA97, Metabolic Activation: HAMSTER, LIVER, S-9, AROCLOR 1254 (10%), Method: PREINCUBATION
  mutagenic call: inactive; negative
Test System: AMES SALMONELLA TYPHIMURIUM, Strain/Indicator: TA97, Metabolic Activation: HAMSTER, LIVER, S-9, AROCLOR 1254 (30%), Method: PREINCUBATION
  mutagenic call: inactive; negative
Test System: AMES SALMONELLA TYPHIMURIUM, Strain/Indicator: TA97, Metabolic Activation: RAT, LIVER, S-9, AROCLOR 1254 (30%), Method: PREINCUBATION
  mutagenic call: inactive; negative
Test System: AMES SALMONELLA TYPHIMURIUM, Strain/Indicator: TA97, Metabolic Activation: RAT, LIVER, S-9, AROCLOR 1254, Method: PREINCUBATION
  mutagenic call: inactive; negative
Test System: AMES SALMONELLA TYPHIMURIUM, Strain/Indicator: TA98, Metabolic Activation: HAMSTER, LIVER, S-9, AROCLOR 1254 (30%), Method: PREINCUBATION
  mutagenic call: inactive; negative
Test System: AMES SALMONELLA TYPHIMURIUM, Strain/Indicator: TA98, Metabolic Activation: NONE, Method: PREINCUBATION
  mutagenic call: inactive; negative
Test System: AMES SALMONELLA TYPHIMURIUM, Strain/Indicator: TA98, Metabolic Activation: RAT, LIVER, S-9, AROCLOR 1254 (30%), Method: PREINCUBATION
  mutagenic call: inactive; negative
Test System: AMES SALMONELLA TYPHIMURIUM, Strain/Indicator: TA100, Metabolic Activation: HAMSTER, LIVER, S-9, AROCLOR 1254 (30%), Method: PREINCUBATION
  mutagenic call: inactive; negative
Test System: AMES SALMONELLA TYPHIMURIUM, Strain/Indicator: TA100, Metabolic Activation: NONE, Method: PREINCUBATION
  mutagenic call: inactive; negative
Test System: AMES SALMONELLA TYPHIMURIUM, Strain/Indicator: TA100, Metabolic Activation: RAT, LIVER, S-9, AROCLOR 1254 (30%), Method: PREINCUBATION
  mutagenic call: inactive; negative
Test System: AMES SALMONELLA TYPHIMURIUM, Strain/Indicator: TA102, Metabolic Activation: NONE, Method: PREINCUBATION
  mutagenic call: inactive; negative
Test System: AMES SALMONELLA TYPHIMURIUM, Strain/Indicator: TA102, Metabolic Activation: RAT, LIVER, S-9, AROCLOR 1254, Method: PREINCUBATION
  mutagenic call: inactive; negative
Test System: AMES SALMONELLA TYPHIMURIUM, Strain/Indicator: TA1535, Metabolic Activation: HAMSTER, LIVER, S-9, AROCLOR 1254 (10%), Method: PREINCUBATION
  mutagenic call: active; positive
Test System: AMES SALMONELLA TYPHIMURIUM, Strain/Indicator: TA1535, Metabolic Activation: NONE, Method: PREINCUBATION
  mutagenic call: inactive; negative
Test System: AMES SALMONELLA TYPHIMURIUM, Strain/Indicator: TA1537, Metabolic Activation: HAMSTER, LIVER, S-9, AROCLOR 1254 (10 OR 30%), Method: PREINCUBATION
  mutagenic call: inactive; negative
Test System: AMES SALMONELLA TYPHIMURIUM, Strain/Indicator: TA1537, Metabolic Activation: NONE, Method: PREINCUBATION
  mutagenic call: inactive; negative
Test System: AMES SALMONELLA TYPHIMURIUM, Strain/Indicator: TA1537, Metabolic Activation: RAT, LIVER, S-9, AROCLOR 1254 (10 OR 30%), Method: PREINCUBATION
  mutagenic call: inactive; negative
Test System: CHINESE HAMSTER V-79 CELLS, Strain/Indicator: V-79-UL (HPRT)/6-THIOGUANINE, Metabolic Activation: NONE, Method: SUSPENSION/PLATE
  mutagenic call: active; positive
Test System: Human lymphoblastoid cells, Strain/Indicator: TK6 (HPRT)/6-thioguanine, Metabolic Activation: None, Method: Suspension/Well
  mutagenic call: active; positive

## CC1=Cc2nc3c(ccc4ccccc43)c(C)c2[C@H](O)[C@H]1O
[1]
  mutagenic call: active; positive

## CN(C)CCNS(=O)(=O)c1cccc2cccnc12
[2]
  mutagenic call: inactive; negative
[3]
  mutagenic call: inactive; negative
Test System: AMES SALMONELLA TYPHIMURIUM, Strain/Indicator: TA100, Metabolic Activation: NONE, Method: STANDARD PLATE
  mutagenic call: inactive; negative
[1]
  mutagenic call: inactive; negative
Test System: AMES SALMONELLA TYPHIMURIUM, Strain/Indicator: TA1535, Metabolic Activation: NONE, Method: STANDARD PLATE
  mutagenic call: inactive; negative
Test System: AMES SALMONELLA TYPHIMURIUM, Strain/Indicator: TA1535, Metabolic Activation: RAT, LIVER, S-9, AROCLOR 1254, Method: STANDARD PLATE
  mutagenic call: inactive; negative
Test System: AMES SALMONELLA TYPHIMURIUM, Strain/Indicator: TA1537, Metabolic Activation: NONE, Method: STANDARD PLATE
  mutagenic call: inactive; negative
Test System: AMES SALMONELLA TYPHIMURIUM, Strain/Indicator: TA1537, Metabolic Activation: RAT, LIVER, S-9, AROCLOR 1254, Method: STANDARD PLATE
  mutagenic call: inactive; negative

## CC(=O)N(O)c1ccc2ccc3cccc4ccc1c2c34
Test System: AMES SALMONELLA TYPHIMURIUM, Strain/Indicator: TA98(1,8-DNP6), Metabolic Activation: NONE, Method: STANDARD PLATE
  mutagenic call: active; positive
Test System: AMES SALMONELLA TYPHIMURIUM, Strain/Indicator: TA98(1,8-DNP6), Metabolic Activation: RAT, LIVER, S-9, AROCLOR 1254, Method: STANDARD PLATE
  mutagenic call: active; positive
Test System: AMES SALMONELLA TYPHIMURIUM, Strain/Indicator: TA98(NR), Metabolic Activation: NONE, Method: STANDARD PLATE
  mutagenic call: active; positive
Test System: AMES SALMONELLA TYPHIMURIUM, Strain/Indicator: TA98(NR), Metabolic Activation: RAT, LIVER, S-9, AROCLOR 1254, Method: STANDARD PLATE
  mutagenic call: active; positive
[2]
  mutagenic call: active; positive
[3]
  mutagenic call: active; positive

## C/C=C1\C[C@@H](C)[C@](C)(OC(C)=O)C(=O)OC/C2=C/CN(C)CC[C@@H](OC1=O)C2=O
Test System: AMES SALMONELLA TYPHIMURIUM, Strain/Indicator: TA100, Metabolic Activation: HAMSTER, LIVER, S-9, PCB, Method: PREINCUBATION
  mutagenic call: inactive; negative; by authors criteria results are positive
Test System: AMES SALMONELLA TYPHIMURIUM, Strain/Indicator: TA100, Metabolic Activation: RAT, LIVER, S-9, PCB, Method: PREINCUBATION
  mutagenic call: active; positive
Test System: UDS RAT HEPATOCYTES, Strain/Indicator: THY INCORP, Metabolic Activation: NONE, Method: AUTORADIOGRAPHY
  mutagenic call: active; positive
